Results reported in patent US20230270729A1, “USE OF N-[…] HAVING P2X4 RECEPTOR ANTAGONISTIC ACTIVITY FOR TREATING CERTIAN OCULAR DISORDERS” (Bayer Aktiengesellschaft, priority 2020, published 2023).

Tests used:
Format in all cases: in vivo, rat
[1] = Evaluation of pharmacokinetics after topical eye drops; conditions: rats, topical eye drops 1 mg/mL in castor oil over four to seven days, expected trough, n = 2; for Mean concentration of test compound, Back of the eye / Mean concentration of test compound, Cornea / Mean concentration of test compound, Lacrimal gland and duct / Mean concentration of test compound, Lens and humor: wet tissue weight
Procedure: Evaluation of Pharmacokinetics
To evaluate the pharmacokinetics of test substances in vivo, these test substances are dissolved in appropriate formulation vehicles (e.g. castor oil). The test substances are then administered to rats topically as eye drops over four to seven days. Administered doses range usually between 0.1 to 5 mg/mL. Blood samples and ocular tissue samples are taken at the time of expected trough concentration, i.e. just before the next dosing would have occurred. Blood samples are retrieved via exsanguination in vials containing appropriate anticoagulants, such as lithium heparinate or potassium EDTA. Plasma is generated from the blood via centrifugation. Eyes are enucleated and briefly washed in PBS to remove possible remains of the topical formulation. Eyes are dissected and tissues of interest, e.g. cornea, lacrimal gland and duct, lens and humor and back of the eye tissue, are collected separately. Ocular tissues are pooled per individual animal, diluted in appropriate amounts of 0.9% NaCl in water and homogenized using a Tissuelyzer or equivalent system. The quantitative measurement of the test substances in the samples is performed using calibration curves in the respective matrices. The protein content of the samples is precipitated using acetonitrile or methanol. Thereafter, the samples are separated using HPLC in combination with reversed phase chromatography columns. The HPLC system is coupled to a triple quadrupole mass spectrometer via an electrospray interface. Particularly, HPLC was performed using a C18 column (e.g. Phenomenex Kinetex C18 5 mm 5 μm 2.1×50) and a mixture of 10 mM ammonium acetate pH6.8 and acetonitrile in a gradient with an increasing fraction of organic solvent. The retention time for the compound of example 2 was for example ca. 2.6 min.
Data: Mean concentration of test compound (μg/L of plasma or μg/kg of wet tissue weight), samples with concentrations below the lower limit of quantification (LOQ) are denoted as “<LOQ”, n corresponds to the number of the treated animals

Sprague Dawley rats [2] = test: Lacrimal gland removal model with pain behavior read out (wipe test); conditions: rats after lacrimal gland removal; after two and four weeks of treatment, compared to vehicle (FIG. 1)
Procedure: Lacrimal Gland Removal Model with Pain Behavior Read Out
(§1) Sprague Dawley rats were anesthetized by intraperitoneal injection of 75 mg/kg ketamine +7.5 mg/kg xylazine hydrochloride. After removal of the facial hair, a 2 mm incision was carefully made between temporal lid margin and zygomatic arch. Bluntly separating the underlying tissue, exposing the fascia covering the intra-orbital lacrimal gland, avoiding the nerves and blood vessels. A small incision was made on the fascia, and the intra-orbital gland was gently pulled out and excised. The incision was sutured with a 8-0 polysorb suture and the skin was closed with a 5-0 polysorb suture (Ethilon; Ethicon Inc, Somerville, N.J.). A 3 mm incision was made just below the earlobe, and the extra-orbital lacrimal gland was pulled out and excised along its stem. This incision was closed in a manner similar as described above.
Acclimate rat in a quiet, clean, clear cage for 15 minutes. Gently hold head of rat, add one drop of 5M NaCl in the rat right eye, and start count wipes (front limb wipe across the face) for 30 seconds. Repeat wipe test in left eye. Wash each eye with 10 ml NS. […] The number of eye wipes over a period of thirty seconds was determined for each animal and averaged at various timepoints. […]

Sprague Dawley rats [3] = test: Lacrimal gland removal model, corneal nerve density measurement (IVCM); conditions: rats after lacrimal gland removal; treatment started two weeks post removal, compared to vehicle (FIG. 2)
Procedure: as §1
Nerve Density Measurement: […]

| Mean concentration of test compound, Plasma [1] [ng/mL] | Mean concentration of test compound, Back of the eye [1] [µg/kg] | Mean concentration of test compound, Cornea [1] [µg/kg] | Mean concentration of test compound, Lacrimal gland and duct [1] [µg/kg] | Mean concentration of test compound, Lens and humor [1] [µg/kg] | SMILES | Eye wipe count (5M NaCl, 30 seconds) (Sprague Dawley rats [2]) | Corneal nerve density (fold difference from baseline) (Sprague Dawley rats [3]) |
| --- | --- | --- | --- | --- | --- | --- | --- |
| 2.37 | 14.5 | 13.4 | 33.4 | <4.0 | N#Cc1cnn(-c2ccc(NC(=O)Cc3ccccc3Cl)cc2S(N)(=O)=O)c1 [2-(2-Chlorophenyl)-N-[4-(4-cyano-1H-pyrazol-1-yl)-3-sulfamoylphenyl]acetamide, reference compound] |  |  |
| 0.4 | 13.8 | 44.9 | 17.4 | 1.8 | CC(=O)N(c1ccc(F)cc1)c1cc(NC(=O)Cc2cccc(F)c2Cl)ccn1 [Example 2, N-{4-[2-(2-chloro-3-fluorophenyl)acetamido]pyridin-2-yl}-N-(4-fluorophenyl)acetamide] | no apparent further increase in wipe count | a decline in nerve density could be observed |
